Assay results as given in ChEMBL document CHEMBL1201862, “PubChem BioAssay data set” (2004).
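Five concentrations, 48 hours, 96-well plates. GI50 marks 50% less growth.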 Activity calls are given as the source filed them. No stated cut-off is given here; in the data, active = GI50 up to about 1.1 µM and inactive = higher.

Key:
Assay in all cases: growth of human tumour cells (NCI), 48 h
NCI/ADR-RES = system: NCI/ADR-RES
OVCAR-8 = system: OVCAR-8
SR = system: SR
CAKI-1 = system: CAKI-1
K562 = system: K562
COLO 205 = system: COLO 205
MCF7 = system: MCF7
T47D = system: T47D
MDA-MB-231 = system: MDA-MB-231
U-251 = system: U-251
DU-145 = system: DU-145
NCI-H23 = system: NCI-H23
HOP-62 = system: HOP-62
UACC-62 = system: UACC-62
SF-295 = system: SF-295
SK-OV-3 = system: SK-OV-3
MDA-N = system: MDA-N
SNB-19 = system: SNB-19
BT-549 = system: BT-549
HCC 2998 = system: HCC 2998

SMILES | GI50 (NCI/ADR-RES) | GI50 (OVCAR-8) | GI50 (SR) | GI50 (CAKI-1) | GI50 (K562) | GI50 (COLO 205) | GI50 (MCF7) | GI50 (T47D) | GI50 (MDA-MB-231) | GI50 (U-251) | GI50 (DU-145) | GI50 (NCI-H23) | GI50 (HOP-62) | GI50 (UACC-62) | GI50 (SF-295) | GI50 (SK-OV-3) | GI50 (MDA-N) | GI50 (SNB-19) | GI50 (BT-549) | GI50 (HCC 2998)
COC(=O)[C@@H]1CCCN1CCN1CCC[C@H]1C(=O)OC | > 100 µM (inactive) | > 100 µM (inactive) | 31.8 µM (inactive) | > 100 µM (inactive) | > 100 µM (inactive) | > 100 µM (inactive) | > 100 µM (inactive) | > 100 µM (inactive) | > 100 µM (inactive) | > 100 µM (inactive) | > 100 µM (inactive) | > 100 µM (inactive) | > 100 µM (inactive) | > 100 µM (inactive) | > 100 µM (inactive) | > 100 µM (inactive) | > 100 µM (inactive) | > 100 µM (inactive) |  | 
O=S1(=O)c2ccccc2N(c2ccccc2)c2nnnn21 | 31.4 µM (inactive) | 30.1 µM (inactive) |  | 17.6 µM (inactive) | 29.4 µM (inactive) | 22.5 µM (inactive) | 36.6 µM (inactive) | 31.8 µM (inactive) | 25.6 µM (inactive) | 32.7 µM (inactive) | 34.5 µM (inactive) | 28.5 µM (inactive) | 21 µM (inactive) | 15.7 µM (inactive) | 47 µM (inactive) | 42.3 µM (inactive) |  | 23.3 µM (inactive) | 22.8 µM (inactive) | 17.7 µM (inactive)
O=C(CC(Cl)(Cl)C(Cl)(Cl)Cl)c1ccccc1 | 5.26 µM (inactive) | 2.59 µM (inactive) | 2.04 µM (inactive) | 2.3 µM (inactive) | 2.09 µM (inactive) | 3.24 µM (inactive) | 3.65 µM (inactive) | 2.73 µM (inactive) | 2.11 µM (inactive) | 4.7 µM (inactive) | 3.01 µM (inactive) | 3.88 µM (inactive) | 4.21 µM (inactive) | 2.74 µM (inactive) | 1.78 µM (inactive) | 18.4 µM (inactive) |  | 17.4 µM (inactive) | 10.7 µM (inactive) | 
CC(NC(=O)c1c(O)[nH]c(=S)[nH]c1=O)c1ccc([N+](=O)[O-])cc1 (stereo unspecified) |  |  |  | > 100 µM (inactive) | 43.7 µM (inactive) | > 100 µM (inactive) | 71 µM (inactive) | 37.2 µM (inactive) | 60.7 µM (inactive) | 32.5 µM (inactive) | 75.7 µM (inactive) | 88.1 µM (inactive) | 58.3 µM (inactive) | 77.3 µM (inactive) | > 100 µM (inactive) | > 100 µM (inactive) | > 100 µM (inactive) | 57.5 µM (inactive) | > 100 µM (inactive) | 35.8 µM (inactive)
O=C(Cc1nc2ccccc2o1)C(=O)Nc1ccc(Cl)cc1Cl |  | > 100 µM (inactive) | 13.1 µM (inactive) | > 100 µM (inactive) | > 100 µM (inactive) | > 100 µM (inactive) |  |  |  | > 100 µM (inactive) |  | > 100 µM (inactive) | > 100 µM (inactive) | > 100 µM (inactive) | > 100 µM (inactive) | > 100 µM (inactive) |  | > 100 µM (inactive) |  | > 100 µM (inactive)
CC1(CCOCc2ccccc2)NC(=O)NC1=O (stereo unspecified) | > 100 µM (inactive) | > 100 µM (inactive) | > 100 µM (inactive) | > 100 µM (inactive) | > 100 µM (inactive) |  |  |  | > 100 µM (inactive) | > 100 µM (inactive) | > 100 µM (inactive) | > 100 µM (inactive) | > 100 µM (inactive) | > 100 µM (inactive) | > 100 µM (inactive) |  | > 100 µM (inactive) | > 100 µM (inactive) | > 100 µM (inactive) | > 100 µM (inactive)
CN(C)c1ccc(N=O)c(O)c1.CN(C)c1ccc(N=O)c(O)c1.[SiH4] |  | 12.9 µM (inactive) | 11 µM (inactive) | 8.55 µM (inactive) | 16.3 µM (inactive) | 2.96 µM (inactive) |  |  |  | 8.09 µM (inactive) |  | 10.1 µM (inactive) | 23 µM (inactive) | 8.49 µM (inactive) | 14.3 µM (inactive) | 20.7 µM (inactive) |  | 17.3 µM (inactive) |  | 15.4 µM (inactive)
COC(=O)C1=C(SC)SC2(C(=O)OC)C3C=C(C)C4C(N13)C42C(=O)OC (stereo unspecified) |  | > 100 µM (inactive) | > 100 µM (inactive) | > 100 µM (inactive) | > 100 µM (inactive) | > 100 µM (inactive) |  |  |  | > 100 µM (inactive) |  | > 100 µM (inactive) | > 100 µM (inactive) | > 100 µM (inactive) | > 100 µM (inactive) | > 100 µM (inactive) |  | > 100 µM (inactive) |  | > 100 µM (inactive)
CC(=O)c1c(N=[N+]=[N-])c2cccc3c2n(c1=O)CCC3 | 19.2 µM (inactive) | 0.957 µM (active) | 36.7 µM (inactive) | 28.3 µM (inactive) | 21.8 µM (inactive) | 21.4 µM (inactive) | 19.8 µM (inactive) | 22.6 µM (inactive) | 13.9 µM (inactive) | 17.3 µM (inactive) |  | 20.8 µM (inactive) | 20 µM (inactive) | 16.5 µM (inactive) | 24.7 µM (inactive) | 46.7 µM (inactive) | 18.5 µM (inactive) | 32.3 µM (inactive) | 20.4 µM (inactive) | 16.9 µM (inactive)
Cc1cc(S(=O)(=O)Nc2nc(N)nc(N(C)C)n2)c(S)cc1Cl | > 10 µM (inactive) | > 10 µM (inactive) | > 10 µM (inactive) | > 10 µM (inactive) | > 10 µM (inactive) | > 10 µM (inactive) | > 10 µM (inactive) | > 10 µM (inactive) |  | > 10 µM (inactive) | > 10 µM (inactive) | > 10 µM (inactive) | > 10 µM (inactive) |  | > 10 µM (inactive) | > 10 µM (inactive) | > 10 µM (inactive) | > 10 µM (inactive) | > 10 µM (inactive) | > 10 µM (inactive)
COc1ccc(/C=C/c2ccnc3ccccc23)cc1OC | 14 µM (inactive) |  | 25.5 µM (inactive) | 15.8 µM (inactive) | 9.79 µM (inactive) | 12.6 µM (inactive) | 6.82 µM (inactive) | 11.7 µM (inactive) |  | 46.9 µM (inactive) | 13.7 µM (inactive) | 14.9 µM (inactive) | 15.1 µM (inactive) | 14.9 µM (inactive) | 13.8 µM (inactive) | 27.7 µM (inactive) | 14.1 µM (inactive) | 17.4 µM (inactive) |  | 39 µM (inactive)
C=C1C(=O)OC2C1CCC(C)C1(O)C=CC(=O)C21C (stereo unspecified) | 3.95 µM (inactive) | 3.5 µM (inactive) | 3.13 µM (inactive) |  | 4.45 µM (inactive) | > 10 µM (inactive) | > 10 µM (inactive) | 6.31 µM (inactive) |  | > 10 µM (inactive) |  | 7.69 µM (inactive) | > 10 µM (inactive) | 6.68 µM (inactive) | > 10 µM (inactive) | > 10 µM (inactive) | 6.85 µM (inactive) | > 10 µM (inactive) |  | > 10 µM (inactive)
O=C(CCCN1CCc2[nH]c3cc(F)ccc3c2C1)c1ccc(F)cc1 | 14.2 µM (inactive) | 15.1 µM (inactive) | 8.49 µM (inactive) | > 100 µM (inactive) | 5.71 µM (inactive) | 4.84 µM (inactive) | 4.59 µM (inactive) | 18.9 µM (inactive) | 12.5 µM (inactive) | 16.3 µM (inactive) | 13.3 µM (inactive) | 14.1 µM (inactive) | 16.1 µM (inactive) | 12.7 µM (inactive) | 17.4 µM (inactive) |  | 15.7 µM (inactive) | > 100 µM (inactive) |  | 3.33 µM (inactive)
CCOC(=O)C(=O)/C(=C/n1c(=S)[nH]c2ccc([N+](=O)[O-])cc21)C(=O)OCC | > 100 µM (inactive) | > 100 µM (inactive) | > 100 µM (inactive) | > 100 µM (inactive) | > 100 µM (inactive) | > 100 µM (inactive) | > 100 µM (inactive) | > 100 µM (inactive) | > 100 µM (inactive) | > 100 µM (inactive) | > 100 µM (inactive) | > 100 µM (inactive) | > 100 µM (inactive) | > 100 µM (inactive) | > 100 µM (inactive) | > 100 µM (inactive) | > 100 µM (inactive) | > 100 µM (inactive) |  | > 100 µM (inactive)
COc1c(Br)cc(/C=C(\C#N)c2ccccn2)cc1Br | 39.4 µM (inactive) | 34.5 µM (inactive) | > 100 µM (inactive) | > 100 µM (inactive) | > 100 µM (inactive) | > 100 µM (inactive) | 26.1 µM (inactive) |  |  | 13.3 µM (inactive) | 37.8 µM (inactive) | 41.7 µM (inactive) | 22.2 µM (inactive) | 10.8 µM (inactive) | 19.2 µM (inactive) | 15.3 µM (inactive) | > 10 µM (inactive) | > 100 µM (inactive) | 22.8 µM (inactive) | > 100 µM (inactive)
Cc1cc(O)no1 [HYMEXAZOL] | > 100 µM (inactive) | > 100 µM (inactive) |  | > 100 µM (inactive) | > 100 µM (inactive) | > 100 µM (inactive) | > 100 µM (inactive) |  | > 100 µM (inactive) | > 100 µM (inactive) |  | > 100 µM (inactive) | > 100 µM (inactive) | > 100 µM (inactive) | > 100 µM (inactive) | > 100 µM (inactive) |  | > 100 µM (inactive) | > 100 µM (inactive) | > 100 µM (inactive)
CCOC(=O)/C(=C\c1ccc(O)c(OC)c1)C(=O)c1ccccc1 |  | 11.7 µM (inactive) | 11 µM (inactive) | 23.9 µM (inactive) | 9.59 µM (inactive) | 36.1 µM (inactive) |  |  |  | 13.5 µM (inactive) | 23.1 µM (inactive) | 8.22 µM (inactive) | > 10 µM (inactive) | 13.7 µM (inactive) | 18.9 µM (inactive) | > 42.8 µM (inactive) |  | 16.5 µM (inactive) |  | 19.6 µM (inactive)
